Source: US9139557B2, “Carboxamide compounds and their use as calpain inhibitors” (Abbott GmbH & Co. KG, priority 2006, dated 2015)

Assays:
Assay type in all cases: biochemical
[1] = target: T1, cathepsin S (Homo sapiens, UniProt P25774); assay: Cathepsin S enzyme inhibition in vitro (kinetic fluorescence assay); settings: Ki(cathepsin S)/Ki(calpain) ratio
T1 construct: purchased Calbiochem 219343; host or cells: E. coli
Method in brief: (§1)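 Kinetic fluorescence (ex 390/em 460 nm), room temperature: calpain-I (human erythrocyte, 20 nM) with 100 µM Suc-Leu-Tyr-AMC, imidazole/CaCl2 pH 7.3; cathepsin B (liver, 0.25 nM), 100 µM Z-Phe-Arg-AMC; L (liver, 1 nM), 2 µM Z-Phe-Arg-AMC; S (recombinant, 0.5 nM), 20 µM Z-Val-Val-Arg-AMC; cathepsins in MES/EDTA/cysteine pH 6.0. Apparent Ki via Cheng-Prusoff, 2–4 curves averaged.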

[2] = target: T2, cathepsin L (Homo sapiens, UniProt P07711); assay: Cathepsin L enzyme inhibition in vitro (kinetic fluorescence assay); settings: Ki(cathepsin L)/Ki(calpain) ratio
T2 construct: cathepsin L—isolated from human liver; purchased Calbiochem 219402; host or cells: human liver (tissue isolate)
T2 sequence (P07711 114-333): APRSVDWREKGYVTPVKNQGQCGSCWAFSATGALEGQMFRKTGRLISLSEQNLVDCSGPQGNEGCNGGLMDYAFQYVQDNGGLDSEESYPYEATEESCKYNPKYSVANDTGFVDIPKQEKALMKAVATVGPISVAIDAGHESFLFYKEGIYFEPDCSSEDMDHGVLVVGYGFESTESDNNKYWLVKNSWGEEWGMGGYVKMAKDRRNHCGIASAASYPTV
Method in brief: as §1

[3] = target: T3, cathepsin K (Homo sapiens, UniProt P43235); assay: Cathepsin K enzyme inhibition in vitro (kinetic fluorescence assay); settings: Ki(cathepsin K)/Ki(calpain) ratio
T3 construct: purchased Calbiochem 342001; host or cells: E. coli
T3 sequence (P43235 115-329): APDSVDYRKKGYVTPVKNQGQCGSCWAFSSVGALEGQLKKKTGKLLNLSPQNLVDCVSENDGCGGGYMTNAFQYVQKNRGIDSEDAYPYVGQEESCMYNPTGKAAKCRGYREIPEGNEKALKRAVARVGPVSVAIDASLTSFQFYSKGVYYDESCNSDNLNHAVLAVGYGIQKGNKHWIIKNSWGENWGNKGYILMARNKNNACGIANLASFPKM
Procedure: (§2) Testing for blockade of the corresponding enzymic activities was carried out by means of kinetic fluorescence assays (excitation 390 nm, emission 460 nm).
(§3) Apparent Ki values were calculated from the experimentally determined IC50 values by the Cheng-Prussoff relation assuming a reversible competitive enzyme inhibition. The Km values of the substrates used under the assay conditions indicated above were: 90 μM (Z-Phe-Arg-AMC, cathepsin B), 10 μM (Z-Gly-Pro-Arg-AMC, cathepsin K), 2 μM (Z-Phe-Arg-AMC, cathepsin L), and 30 μM (Z-Val-Val-Arg-AMC, cathepsin S).
(§4) The indicated Ki values are averages of the inhibition constants calculated on the basis of 2 to 4 independent dose-effect plots.
(§5) • 1. Calpain I: • 20 nM calpain-I—isolated from human erythrocytes (Calbiochem #208713), 100 μM Suc-Leu-Tyr-AMC (Bachem #1-1355) as substrate in buffer with 62 mM imidazole, 0.3 mM CaCl2, 0.10% CHAPS, 0.05% BSA, 1 mM DTT at pH 7.3 and room temperature. • 2. Cathepsin B: • 0.25 nM cathepsin B—isolated from human liver (Calbiochem #219362), 100 μM Z-Phe-Arg-AMC (Bachem #1-1160) as substrate 50 mM MES, 2 mM EDTA, 0.05% Brij 35, 2.5 mM L-cysteine, pH 6.0, room temperature. • 3. Cathepsin K: • 3 nM cathepsin K—activated from recombinant human procathepsin K from E. coli (Calbiochem #342001), 10 μM Z-Gly-Pro-Arg-AMC (Biomol #P-142) as substrate in 50 mM MES, 2 mM EDTA, 0.05% Brij 35, 2.5 mM L-cysteine, pH 6.0, room temperature. • 4. Cathepsin L: • 1 nM cathepsin L—isolated from human liver (Calbiochem #219402), 2 μM Z-Phe-Arg-AMC (Bachem #1-1160) as substrate in 50 mM MES, 2 mM EDTA, 0.05% Brij 35, 2.5 mM L-cysteine, pH 6.0, room temperature. • 5. Cathepsin S: • 0.5 nM recombinant human cathepsin S from E. coli (Calbiochem #219343), 20 μM Z-Val-Val-Arg-AMC (Bachem #1-1540) as substrate in 50 mM MES, 2 mM EDTA, 0.05% Brij 35, 2.5 mM L-cysteine, pH 6.0, room temperature.

[4] = target: T4, cathepsin B (Homo sapiens, UniProt P07858); assay: Cathepsin B enzyme inhibition in vitro (kinetic fluorescence assay); settings: Ki(cathepsin B)/Ki(calpain) ratio
T4 construct: cathepsin B—isolated from human liver; purchased Calbiochem 219362; host or cells: human liver (tissue isolate)
Procedure: as §2, §3, §4, §5

T1 sequence (P25774 115-331): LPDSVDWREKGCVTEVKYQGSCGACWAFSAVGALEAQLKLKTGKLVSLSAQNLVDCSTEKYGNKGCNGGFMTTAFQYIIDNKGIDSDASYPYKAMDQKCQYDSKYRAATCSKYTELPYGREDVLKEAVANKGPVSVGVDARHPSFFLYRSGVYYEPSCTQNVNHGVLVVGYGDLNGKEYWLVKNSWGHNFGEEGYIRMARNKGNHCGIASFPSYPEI

Structure (SMILES)	Sel cat. S [1]	Sel cat. L [2]	Sel cat. K [3]	Sel cat. B [4]
NC(=O)C(=O)C(Cc1cccc(F)c1)NC(=O)c1cccnc1-n1ccc(-c2ccccc2OC(F)(F)F)n1 (stereo not drawn) [Example 162, N-{3-Amino-1-[(3-fluorophenyl)methyl]-2,3-dioxopropyl}-2-(3-{2-[(trifluoromethyl)oxy]phenyl}-1H-pyrazol-1-yl)pyridine-3-carboxamide]	++ (++ means a Ki(cathepsin S)/Ki(calpain) ratio of ≧100)	++ (++ means a Ki(cathepsin L)/Ki(calpain) ratio of ≧50)	++ (++ means a Ki(cathepsin K)/Ki(calpain) ratio of ≧30)	++ (++ means a Ki(cathepsin B)/Ki(calpain) ratio of ≧30)
NC(=O)C(=O)C(Cc1ccccc1)NC(=O)c1cccnc1-n1ccc(-c2cccc3c2OC(F)(F)O3)n1 (stereo not drawn) [Example 119, N-[3-Amino-2,3-dioxo-1-(phenylmethyl)propyl]-2-[3-(2,2-difluoro-1,3-benzodioxol-4-yl)-1H-pyrazol-1-yl]pyridine-3-carboxamide]	++ (++ means a Ki(cathepsin S)/Ki(calpain) ratio of ≧100)	++ (++ means a Ki(cathepsin L)/Ki(calpain) ratio of ≧50)	++ (++ means a Ki(cathepsin K)/Ki(calpain) ratio of ≧30)	++ (++ means a Ki(cathepsin B)/Ki(calpain) ratio of ≧30)
NC(=O)C(=O)C(Cc1ccccc1)NC(=O)c1cccnc1-n1ccc(-c2ccc(N3CCOCC3)cc2Cl)n1 (stereo not drawn) [Example 99, N-[3-Amino-2,3-dioxo-1-(phenylmethyl)propyl]-2-[3-(2-chloro-4-morpholin-4-ylphenyl)-1H-pyrazol-1-yl]pyridine-3-carboxamide]	++ (++ means a Ki(cathepsin S)/Ki(calpain) ratio of ≧100)	++ (++ means a Ki(cathepsin L)/Ki(calpain) ratio of ≧50)	++ (++ means a Ki(cathepsin K)/Ki(calpain) ratio of ≧30)	++ (++ means a Ki(cathepsin B)/Ki(calpain) ratio of ≧30)
NC(=O)C(=O)C(Cc1ccccc1)NC(=O)c1cccnc1-n1ccc(-c2cc(C(F)(F)F)ccc2CN2CCOCC2)n1 (stereo not drawn) [Example 163, N-[3-Amino-2,3-dioxo-1-(phenylmethyl)propyl]-2-{3-[2-(morpholin-4-ylmethyl)-5-(trifluoromethyl)phenyl]-1H-pyrazol-1-yl}pyridine-3-carboxamide]	++ (++ means a Ki(cathepsin S)/Ki(calpain) ratio of ≧100)	+ (+ means 30≦Ki(cathepsin L)/Ki(calpain)<50)	+ (+ means 10≦Ki(cathepsin K)/Ki(calpain)<30)	+ (+ means 10≦Ki(cathepsin B)/Ki(calpain)<30)
COc1ccc(CC(NC(=O)c2cccnc2-n2ccc(-c3ccc(F)cc3)n2)C(=O)C(N)=O)cc1 (stereo not drawn) [Example 81, N-[3-Amino-1-(4-methoxybenzyl)-2,3-dioxopropyl]-2-[3-(4-fluorophenyl)-1H-pyrazol-1-yl]nicotinamide]	++ (++ means a Ki(cathepsin S)/Ki(calpain) ratio of ≧100)	++ (++ means a Ki(cathepsin L)/Ki(calpain) ratio of ≧50)	+ (+ means 10≦Ki(cathepsin K)/Ki(calpain)<30)	+ (+ means 10≦Ki(cathepsin B)/Ki(calpain)<30)
NC(=O)C(=O)C(Cc1ccccc1)NC(=O)c1cccnc1-n1ccc(-c2cccc3c2OCC3)n1 (stereo not drawn) [Example 164, N-[3-Amino-2,3-dioxo-1-(phenylmethyl)propyl]-2-[3-(2,3-dihydro-1-benzofuran-7-yl)-1H-pyrazol-1-yl]pyridine-3-carboxamide]	++ (++ means a Ki(cathepsin S)/Ki(calpain) ratio of ≧100)	++ (++ means a Ki(cathepsin L)/Ki(calpain) ratio of ≧50)	++ (++ means a Ki(cathepsin K)/Ki(calpain) ratio of ≧30)	+ (+ means 10≦Ki(cathepsin B)/Ki(calpain)<30)
NC(=O)C(=O)C(Cc1ccccc1)NC(=O)c1cccnc1-n1cc(Cl)c(-c2ccc(F)cc2)n1 (stereo not drawn) [Example 184, N-[3-Amino-2,3-dioxo-1-(phenylmethyl)propyl]-2-[4-chloro-3-(4-fluorophenyl)-1H-pyrazol-1-yl]pyridine-3-carboxamide]	++ (++ means a Ki(cathepsin S)/Ki(calpain) ratio of ≧100)	++ (++ means a Ki(cathepsin L)/Ki(calpain) ratio of ≧50)	+ (+ means 10≦Ki(cathepsin K)/Ki(calpain)<30)	+ (+ means 10≦Ki(cathepsin B)/Ki(calpain)<30)
NC(=O)C(=O)C(Cc1ccccc1)NC(=O)c1cccnc1-n1ccc(-c2ccc(Cl)s2)n1 (stereo not drawn) [Example 103, N-[3-Amino-2,3-dioxo-1-(phenylmethyl)propyl]-2-[3-(5-chloro-2-thienyl)-1H-pyrazol-1-yl]pyridine-3-carboxamide]	++ (++ means a Ki(cathepsin S)/Ki(calpain) ratio of ≧100)	++ (++ means a Ki(cathepsin L)/Ki(calpain) ratio of ≧50)	+ (+ means 10≦Ki(cathepsin K)/Ki(calpain)<30)	+ (+ means 10≦Ki(cathepsin B)/Ki(calpain)<30)
COc1ccc(CC(NC(=O)c2cccnc2-n2ccc(-c3ccc(Cl)cc3Cl)n2)C(=O)C(N)=O)cc1 (stereo not drawn) [Example 98, N-(3-Amino-1-{[4-(methyloxy)phenyl]methyl}-2,3-dioxopropyl)-2-[3-(2,4-dichlorophenyl)-1H-pyrazol-1-yl]pyridine-3-carboxamide]	++ (++ means a Ki(cathepsin S)/Ki(calpain) ratio of ≧100)	++ (++ means a Ki(cathepsin L)/Ki(calpain) ratio of ≧50)	++ (++ means a Ki(cathepsin K)/Ki(calpain) ratio of ≧30)	++ (++ means a Ki(cathepsin B)/Ki(calpain) ratio of ≧30)
NC(=O)C(=O)C(Cc1ccccc1)NC(=O)c1cccnc1-n1cc2c(n1)-c1ccccc1CC2 (stereo not drawn) [Example 63, N-(3-Amino-1-benzyl-2,3-dioxopropyl)-2-(4,5-dihydro-2H-benzo[g]indazol-2-yl)nicotinamide]	++ (++ means a Ki(cathepsin S)/Ki(calpain) ratio of ≧100)	++ (++ means a Ki(cathepsin L)/Ki(calpain) ratio of ≧50)	+ (+ means 10≦Ki(cathepsin K)/Ki(calpain)<30)	+ (+ means 10≦Ki(cathepsin B)/Ki(calpain)<30)
NC(=O)C(=O)C(Cc1ccc(F)cc1)NC(=O)c1cccnc1-n1ccc(-c2ccccc2OC(F)(F)F)n1 (stereo not drawn) [Example 152, N-{3-Amino-1-[(4-fluorophenyl)methyl]-2,3-dioxopropyl}-2-(3-{2-[(trifluoromethyl)oxy]phenyl}-1H-pyrazol-1-yl)pyridine-3-carboxamide]	++ (++ means a Ki(cathepsin S)/Ki(calpain) ratio of ≧100)	++ (++ means a Ki(cathepsin L)/Ki(calpain) ratio of ≧50)	++ (++ means a Ki(cathepsin K)/Ki(calpain) ratio of ≧30)	++ (++ means a Ki(cathepsin B)/Ki(calpain) ratio of ≧30)
Cc1c(Cl)ccc2c1-c1nn(-c3ncccc3C(=O)NC(Cc3ccccc3)C(=O)C(N)=O)cc1CO2 (stereo not drawn) [Example 143, N-[3-Amino-2,3-dioxo-1-(phenylmethyl)propyl]-2-(8-chloro-9-methylchromeno[4,3-c]pyrazol-2(4H)-yl)pyridine-3-carboxamide]	++ (++ means a Ki(cathepsin S)/Ki(calpain) ratio of ≧100)	++ (++ means a Ki(cathepsin L)/Ki(calpain) ratio of ≧50)	++ (++ means a Ki(cathepsin K)/Ki(calpain) ratio of ≧30)	++ (++ means a Ki(cathepsin B)/Ki(calpain) ratio of ≧30)
